Test results reported in ChEMBL document CHEMBL1147210, “Synthesis and antibacterial activity of levofloxacin derivatives with certain bulky residues on piperazine ring” (Eur J Med Chem, 2007).
≈ marks a conversion by molar mass, not a printed value. Calls of active or inactive are those of the source. The calls are words filed in the database; no cut-off is given here.

Experiments:
Staphylococcus aureus [1] = assay: Antibacterial activity against Staphylococcus aureus ATCC 25923 after 18 hrs; type: functional; conditions: ATCC 25923, 18 h
Staphylococcus aureus [2] = assay: Antibacterial activity against Staphylococcus aureus ATCC 6538p after 18 hrs; type: functional
Staphylococcus aureus [3] = assay: Antibacterial activity against methicillin-resistant Staphylococcus aureus isolate 1 after 18 hrs; type: functional
Staphylococcus aureus [4] = assay: Antibacterial activity against methicillin-resistant Staphylococcus aureus isolate 2 after 18 hrs; type: functional
[5] = tested on: Staphylococcus epidermidis; assay: Antibacterial activity against Staphylococcus epidermidis ATCC 14940 after 18 hrs; type: functional; conditions: ATCC 14940, 18 h
[6] = tested on: Staphylococcus epidermidis; assay: Antibacterial activity against Staphylococcus epidermidis ATCC 12228 after 18 hrs; type: functional; conditions: ATCC 12228, 18 h
Bacillus subtilis = assay: Antibacterial activity against Bacillus subtilis ATCC 6051 after 18 hrs; type: functional; conditions: ATCC 6051, 18 h
Enterococcus faecalis = assay: Antibacterial activity against Enterococcus faecalis NCTC 6013 after 18 hrs; type: functional; conditions: NCTC 6013, 18 h
Serratia marcescens = assay: Antibacterial activity against Serratia marcescens PTCC 1111 after 18 hrs; type: functional
Escherichia coli [7] = assay: Antibacterial activity against Escherichia coli ATCC 25922 after 18 hrs; type: functional; conditions: ATCC 25922, 18 h
Escherichia coli [8] = assay: Antibacterial activity against Escherichia coli NCTC 12900 after 18 hrs; type: functional; conditions: NCTC 12900, 18 h
Klebsiella pneumoniae = assay: Antibacterial activity against Klebsiella pneumoniae ATCC 10031 after 18 hrs; type: functional; conditions: ATCC 10031, 18 h
Salmonella typhi = assay: Antibacterial activity against Salmonella typhi ATCC 19430 after 18 hrs; type: functional, Salmonella enterica subsp. enterica serovar Typhi; conditions: Salmonella enterica, ATCC 19430, 18 h
Shigella flexneri = assay: Antibacterial activity against Shigella flexneri NCTC 8516 after 18 hrs; type: functional; conditions: NCTC 8516, 18 h
Pseudomonas aeruginosa = assay: Antibacterial activity against Pseudomonas aeruginosa ATCC 27853 after 18 hrs; type: functional; conditions: ATCC 27853, 18 h
MCF7 = assay: Cytotoxic activity against human MCF7 cells after 48 hrs by MTT reduction assay; type: functional, cell-based; conditions: for IC50: MCF7, 48 h

Structure (SMILES)	MIC (Staphylococcus aureus [1]) [µg/mL]	MIC (Staphylococcus aureus [2]) [µg/mL]	MIC (Staphylococcus aureus [3]) [µg/mL]	MIC (Staphylococcus aureus [4]) [µg/mL]	MIC [5] [µg/mL]	MIC [6] [µg/mL]	MIC (Bacillus subtilis) [µg/mL]	MIC (Enterococcus faecalis) [µg/mL]	MIC (Serratia marcescens) [µg/mL]	MIC (Escherichia coli [7]) [µg/mL]	MIC (Escherichia coli [8]) [µg/mL]	MIC (Klebsiella pneumoniae) [µg/mL]	MIC (Salmonella typhi) [µg/mL]	MIC (Shigella flexneri) [µg/mL]	MIC (Pseudomonas aeruginosa) [µg/mL]	Activity (MCF7)	IC50 (MCF7) [µM]
C[C@H]1COc2c(N3CCN(CC(=O)c4ccc(F)cc4)CC3)c(F)cc3c(=O)c(C(=O)O)cn1c23	1 (≈ 2.07 µM)	1 (≈ 2.07 µM)	0.5 (≈ 1.03 µM)	1 (≈ 2.07 µM)	0.5 (≈ 1.03 µM)	0.5 (≈ 1.03 µM)	0.5 (≈ 1.03 µM)	0.25 (≈ 0.517 µM)	> 4	1 (≈ 2.07 µM)	2 (≈ 4.14 µM)	> 4	1 (≈ 2.07 µM)	1 (≈ 2.07 µM)	> 4		
C[C@H]1COc2c(N3CCN(CC(=O)c4ccc(Cl)cc4Cl)CC3)c(F)cc3c(=O)c(C(=O)O)cn1c23	0.5 (≈ 0.936 µM)	1 (≈ 1.87 µM)	0.5 (≈ 0.936 µM)	1 (≈ 1.87 µM)	0.5 (≈ 0.936 µM)	1 (≈ 1.87 µM)	1 (≈ 1.87 µM)	0.5 (≈ 0.936 µM)	> 4	1 (≈ 1.87 µM)	2 (≈ 3.74 µM)	> 4	2 (≈ 3.74 µM)	1 (≈ 1.87 µM)	> 4		
C[C@H]1COc2c(N3CCN(C/C(=N\O)c4ccc(F)cc4)CC3)c(F)cc3c(=O)c(C(=O)O)cn1c23	1 (≈ 2.01 µM)	1 (≈ 2.01 µM)	1 (≈ 2.01 µM)	1 (≈ 2.01 µM)	0.5 (≈ 1 µM)	0.5 (≈ 1 µM)	0.25 (≈ 0.502 µM)	0.25 (≈ 0.502 µM)	> 4	4 (≈ 8.02 µM)	2 (≈ 4.01 µM)	> 4	1 (≈ 2.01 µM)	1 (≈ 2.01 µM)	> 4		
COc1ccc(C(=O)CN2CCN(c3c(F)cc4c(=O)c(C(=O)O)cn5c4c3OC[C@@H]5C)CC2)cc1	0.5 (≈ 1.01 µM)	0.5 (≈ 1.01 µM)	0.5 (≈ 1.01 µM)	1 (≈ 2.02 µM)	0.25 (≈ 0.505 µM)	0.25 (≈ 0.505 µM)	0.25 (≈ 0.505 µM)	0.06 (≈ 0.121 µM)	4 (≈ 8.07 µM)	0.5 (≈ 1.01 µM)	0.5 (≈ 1.01 µM)	4 (≈ 8.07 µM)	0.5 (≈ 1.01 µM)	0.5 (≈ 1.01 µM)	> 4		
C[C@H]1COc2c(N3CCN(C/C(=N\OCc4ccccc4)c4ccccc4)CC3)c(F)cc3c(=O)c(C(=O)O)cn1c23	> 4	> 4	> 4	> 4	> 4	> 4	> 4	> 4	> 4	> 4	> 4	> 4	> 4	> 4	> 4	inactive	
COc1ccc(/C(CN2CCN(c3c(F)cc4c(=O)c(C(=O)O)cn5c4c3OC[C@@H]5C)CC2)=N/O)cc1	1 (≈ 1.96 µM)	0.5 (≈ 0.979 µM)	1 (≈ 1.96 µM)	0.5 (≈ 0.979 µM)	0.5 (≈ 0.979 µM)	0.5 (≈ 0.979 µM)	0.12 (≈ 0.235 µM)	0.06 (≈ 0.118 µM)	> 4	0.5 (≈ 0.979 µM)	0.5 (≈ 0.979 µM)	> 4	0.5 (≈ 0.979 µM)	0.5 (≈ 0.979 µM)	> 4		
C[C@H]1COc2c(N3CCN(CC(=O)c4ccc(Br)cc4)CC3)c(F)cc3c(=O)c(C(=O)O)cn1c23	0.5 (≈ 0.918 µM)	1 (≈ 1.84 µM)	1 (≈ 1.84 µM)	0.5 (≈ 0.918 µM)	0.25 (≈ 0.459 µM)	0.25 (≈ 0.459 µM)	0.25 (≈ 0.459 µM)	0.12 (≈ 0.22 µM)	4 (≈ 7.35 µM)	0.5 (≈ 0.918 µM)	0.5 (≈ 0.918 µM)	> 4	0.5 (≈ 0.918 µM)	0.5 (≈ 0.918 µM)	> 4		5.2
C[C@H]1COc2c(N3CCN(CC(=O)c4ccc(Cl)cc4)CC3)c(F)cc3c(=O)c(C(=O)O)cn1c23	0.5 (≈ 1 µM)	0.5 (≈ 1 µM)	0.25 (≈ 0.5 µM)	0.25 (≈ 0.5 µM)	0.12 (≈ 0.24 µM)	0.25 (≈ 0.5 µM)	0.12 (≈ 0.24 µM)	0.06 (≈ 0.12 µM)	4 (≈ 8 µM)	0.5 (≈ 1 µM)	1 (≈ 2 µM)	> 4	0.25 (≈ 0.5 µM)	0.25 (≈ 0.5 µM)	> 4		5.2
C[C@H]1COc2c(N3CCN(C/C(=N\O)c4ccc(Cl)cc4)CC3)c(F)cc3c(=O)c(C(=O)O)cn1c23	0.5 (≈ 0.971 µM)	0.25 (≈ 0.485 µM)	0.5 (≈ 0.971 µM)	0.25 (≈ 0.485 µM)	0.12 (≈ 0.233 µM)	0.25 (≈ 0.485 µM)	0.25 (≈ 0.485 µM)	0.06 (≈ 0.117 µM)	> 4	2 (≈ 3.88 µM)	1 (≈ 1.94 µM)	> 4	0.5 (≈ 0.971 µM)	0.5 (≈ 0.971 µM)	> 4		5.2
C[C@H]1COc2c(N3CCN(C/C(=N\O)c4ccc(Cl)cc4Cl)CC3)c(F)cc3c(=O)c(C(=O)O)cn1c23	0.5 (≈ 0.91 µM)	0.5 (≈ 0.91 µM)	0.5 (≈ 0.91 µM)	0.5 (≈ 0.91 µM)	0.5 (≈ 0.91 µM)	0.5 (≈ 0.91 µM)	1 (≈ 1.82 µM)	4 (≈ 7.28 µM)	> 4	4 (≈ 7.28 µM)	4 (≈ 7.28 µM)	> 4	4 (≈ 7.28 µM)	4 (≈ 7.28 µM)	> 4		
C[C@H]1COc2c(N3CCN(C)CC3)c(F)cc3c(=O)c(C(=O)O)cn1c23.C[C@H]1COc2c(N3CCN(C)CC3)c(F)cc3c(=O)c(C(=O)O)cn1c23.O [LEVOFLOXACIN]	0.5	0.25	0.25	0.25	0.5	0.25	0.5	1	0.5			0.25	0.03	0.03			
C[C@H]1COc2c(N3CCN(C/C(=N\O)c4ccccc4)CC3)c(F)cc3c(=O)c(C(=O)O)cn1c23	0.5 (≈ 1.04 µM)	0.5 (≈ 1.04 µM)	0.5 (≈ 1.04 µM)	1 (≈ 2.08 µM)	0.5 (≈ 1.04 µM)	0.5 (≈ 1.04 µM)	0.25 (≈ 0.52 µM)	4 (≈ 8.32 µM)	> 4	4 (≈ 8.32 µM)	4 (≈ 8.32 µM)	4 (≈ 8.32 µM)	0.5 (≈ 1.04 µM)	0.5 (≈ 1.04 µM)	> 4		
C[C@H]1COc2c(N3CCN(C/C(=N\O)c4ccc(Br)cc4)CC3)c(F)cc3c(=O)c(C(=O)O)cn1c23	0.5 (≈ 0.894 µM)	0.5 (≈ 0.894 µM)	0.5 (≈ 0.894 µM)	0.5 (≈ 0.894 µM)	0.12 (≈ 0.215 µM)	0.25 (≈ 0.447 µM)	0.12 (≈ 0.215 µM)	0.06 (≈ 0.107 µM)	> 4	4 (≈ 7.15 µM)	1 (≈ 1.79 µM)	> 4	0.5 (≈ 0.894 µM)	0.5 (≈ 0.894 µM)	> 4		5.2
Cc1ccc(/C(CN2CCN(c3c(F)cc4c(=O)c(C(=O)O)cn5c4c3OC[C@@H]5C)CC2)=N/O)cc1	1 (≈ 2.02 µM)	0.5 (≈ 1.01 µM)	0.5 (≈ 1.01 µM)	0.5 (≈ 1.01 µM)	0.5 (≈ 1.01 µM)	0.5 (≈ 1.01 µM)	0.5 (≈ 1.01 µM)	0.25 (≈ 0.506 µM)	> 4	1 (≈ 2.02 µM)	1 (≈ 2.02 µM)	> 4	1 (≈ 2.02 µM)	1 (≈ 2.02 µM)	> 4		
C[C@H]1COc2c(N3CCN(CC(=O)c4ccccc4)CC3)c(F)cc3c(=O)c(C(=O)O)cn1c23	0.5 (≈ 1.07 µM)	0.5 (≈ 1.07 µM)	0.5 (≈ 1.07 µM)	1 (≈ 2.15 µM)	0.5 (≈ 1.07 µM)	0.5 (≈ 1.07 µM)	0.5 (≈ 1.07 µM)	4 (≈ 8.59 µM)	4 (≈ 8.59 µM)	0.12 (≈ 0.258 µM)	0.25 (≈ 0.537 µM)	0.5 (≈ 1.07 µM)	0.12 (≈ 0.258 µM)	0.25 (≈ 0.537 µM)	> 4		
COc1cc([C@@H]2c3cc4c(cc3[C@@H](O[C@@H]3O[C@@H]5CO[C@@H](C)O[C@H]5[C@H](O)[C@H]3O)[C@H]3COC(=O)[C@H]23)OCO4)cc(OC)c1O [ETOPOSIDE]																	3.2
Cc1ccc(C(=O)CN2CCN(c3c(F)cc4c(=O)c(C(=O)O)cn5c4c3OC[C@@H]5C)CC2)cc1	0.5 (≈ 1.04 µM)	1 (≈ 2.09 µM)	1 (≈ 2.09 µM)	1 (≈ 2.09 µM)	0.5 (≈ 1.04 µM)	0.5 (≈ 1.04 µM)	0.5 (≈ 1.04 µM)	0.25 (≈ 0.521 µM)	> 4	1 (≈ 2.09 µM)	0.5 (≈ 1.04 µM)	> 4	1 (≈ 2.09 µM)	0.5 (≈ 1.04 µM)	> 4		
C[C@H]1COc2c(N3CCNCC3)c(F)cc3c(=O)c(C(=O)O)cn1c23 [N-DESMETHYL LEVOFLOXACIN]	4 (≈ 11.5 µM)	2 (≈ 5.76 µM)	2 (≈ 5.76 µM)	2 (≈ 5.76 µM)	1 (≈ 2.88 µM)	1 (≈ 2.88 µM)	1 (≈ 2.88 µM)	0.06 (≈ 0.173 µM)	1 (≈ 2.88 µM)	0.12 (≈ 0.345 µM)	0.12 (≈ 0.345 µM)	0.25 (≈ 0.72 µM)	0.06 (≈ 0.173 µM)	0.06 (≈ 0.173 µM)	> 4		
